The text below walks through data of patent US20230123334A1, “AMINO LIPID COMPOUND, PREPARATION METHOD THEREFOR, AND APPLICATION THEREOF” (SHENZHEN SHENXIN BIOTECHNOLOGY CO., LTD., priority 2020, published 2023).

In one test the test system is MCF7 cells. In words: Transfection of MCF7 cell line, DNA vectors. The test is classed as cell-based. Also noted: concentration or dose not given beside the values. Particulars: plasmid DNA, GFP cells / total cells. The method in brief:
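MCF7 cells in DMEM with fetal bovine serum were transfected in 96-well format. Read-out was the percentage of GFP-fluorescent cells among total cells counted by Hoechst nuclear stain. Lipofectamine2000 served as positive control.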
With `CCCCCCCCCCCSc1nc(NCCCCCCCCC)nc(NCCN2CCCC2)n1` [Compound S11N9D3], the “Absolute DNA transfection efficiency in MCF7 cells” value worked out at 13.6%.
Regarding `CCCCCCCCCCCSc1nc(NCCCCCCCCC)nc(NCCN2CCN(C)CC2)n1` [Compound S11N9D5], the “Absolute DNA transfection efficiency in MCF7 cells” value is 23.1%.
Same read-out and setting: the result for `CCCCCCCCCCCSc1nc(NCCCCCCCCC)nc(NCCCN(C)C)n1` [Compound S11N9D6] reads 25.1%; that for `CCCCCCCCCCCSc1nc(NCCCCCCCCC)nc(NCCCN2CCOCC2)n1` [Compound S11N9D8], 0.9%.
For the molecule `CCCCCCCCCCCSc1nc(NCCCCCCCCC)nc(NCCCN2CCN(C)CC2)n1` [Compound S11N9D9], the “Absolute DNA transfection efficiency in MCF7 cells” value came to 33.5%.
As for `CCCCCCCCCCCSc1nc(NCCCCCCCCC)nc(NCC2CCN(C)CC2)n1` [Compound S11N9D10], the “Absolute DNA transfection efficiency in MCF7 cells” value was found to be 48.7%.

A further test has as its system MCF7 cells. As to the kind of experiment: Transfection of MCF7 cell line, mRNA vectors. The test is classed as cell-based. To be noted: 50 ng EGFP mRNA per well. The method in brief: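 MCF7 cells in DMEM with fetal bovine serum were transfected with 50 ng EGFP mRNA per well. Read-out was the percentage of GFP-positive cells among total Hoechst-stained nuclei, with Lipofectamine2000 as positive control.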
For the molecule `CCCCCCCCCCCSc1nc(NCCCCCCCCC)nc(NCCN2CCCC2)n1` [Compound S11N9D3], the “Absolute mRNA transfection efficiency in MCF7 cells” value worked out at 26.6%.
Regarding `CCCCCCCCCCCSc1nc(NCCCCCCCCC)nc(NCCN2CCN(C)CC2)n1` [Compound S11N9D5], the “Absolute mRNA transfection efficiency in MCF7 cells” value is 17.8%.
Regarding `CCCCCCCCCCCSc1nc(NCCCCCCCCC)nc(NCCCN(C)C)n1` [Compound S11N9D6], the “Absolute mRNA transfection efficiency in MCF7 cells” value worked out at 32.6%.
Regarding `CCCCCCCCCCCSc1nc(NCCCCCCCCC)nc(NCCCN2CCOCC2)n1` [Compound S11N9D8], the “Absolute mRNA transfection efficiency in MCF7 cells” value worked out at 13.1%.
For the molecule `CCCCCCCCCCCSc1nc(NCCCCCCCCC)nc(NCCCN2CCN(C)CC2)n1` [Compound S11N9D9], the “Absolute mRNA transfection efficiency in MCF7 cells” value was 27.3%.
For the molecule `CCCCCCCCCCCSc1nc(NCCCCCCCCC)nc(NCC2CCN(C)CC2)n1` [Compound S11N9D10], the “Absolute mRNA transfection efficiency in MCF7 cells” value came out at 36.6%.

The next test concerns Hela cells. As to the kind of experiment: Transfection of Hela cell line, DNA vectors. The class given is cell-based. Particulars: 75 ng plasmid DNA, GFP cells / total cells. A digest of the protocol:
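Amino lipid/DOPE liposomes in sodium acetate pH 5.6 were complexed with 75 ng psin-EGFP-IRES-Puro plasmid for 30 min at room temperature, then mixed with 3-5×10^4 Hela cells in DMEM/10% FBS at 37° C. Hoechst stain after 20-24 h, imaging after a further 20-24 h. Efficiency = GFP-positive cells / total nuclei.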
As for `CCCCCCCCCCCSc1nc(NCCCCCCCCC)nc(NCCN2CCCC2)n1` [Compound S11N9D3], the “Absolute DNA transfection efficiency in Hela cells” value came to 11.5%.
Regarding `CCCCCCCCCCCSc1nc(NCCCCCCCCC)nc(NCCN2CCN(C)CC2)n1` [Compound S11N9D5], the “Absolute DNA transfection efficiency in Hela cells” value was found to be 10.6%.
As to `CCCCCCCCCCCSc1nc(NCCCCCCCCC)nc(NCCCN(C)C)n1` [Compound S11N9D6], the “Absolute DNA transfection efficiency in Hela cells” value is given as 20.3%.
Same read-out and setting: then `CCCCCCCCCCCSc1nc(NCCCCCCCCC)nc(NCCCN2CCOCC2)n1` [Compound S11N9D8], with 4.3%.
Turning to `CCCCCCCCCCCSc1nc(NCCCCCCCCC)nc(NCCCN2CCN(C)CC2)n1` [Compound S11N9D9], the “Absolute DNA transfection efficiency in Hela cells” value came to 11.8%.
Still for that read-out and setting: then `CCCCCCCCCCCSc1nc(NCCCCCCCCC)nc(NCC2CCN(C)CC2)n1` [Compound S11N9D10], with 16.2%.

In a further test the test system is embryonic stem cells (hESC2). As to the kind of experiment: Screening as mRNA vectors in embryonic stem cells. The test is classed as cell-based. Particulars: 50 ng EGFP mRNA per well. The method in brief: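 EGFP mRNA (50 ng per well) transfected into hESC2 cells grown in mTeSR1; Lipofectamine Stem served as positive control. Read-out: GFP-fluorescent cells as percentage of total cells.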
On to `CCCCCCCCCCCSc1nc(NCCCCCCCCC)nc(NCCN2CCCC2)n1` [Compound S11N9D3], for which the “Absolute mRNA transfection efficiency in embryonic stem cells” value stood at 22.0%.
Regarding `CCCCCCCCCCCSc1nc(NCCCCCCCCC)nc(NCCN2CCN(C)CC2)n1` [Compound S11N9D5], the “Absolute mRNA transfection efficiency in embryonic stem cells” value is 24.9%.
The same measure, in the same setting: then `CCCCCCCCCCCSc1nc(NCCCCCCCCC)nc(NCCCN(C)C)n1` [Compound S11N9D6], with 0.7%; and `CCCCCCCCCCCSc1nc(NCCCCCCCCC)nc(NCCCN2CCOCC2)n1` [Compound S11N9D8], with 3.2%.
Take `CCCCCCCCCCCSc1nc(NCCCCCCCCC)nc(NCCCN2CCN(C)CC2)n1` [Compound S11N9D9]: the “Absolute mRNA transfection efficiency in embryonic stem cells” value is 33.5%.
Turning to `CCCCCCCCCCCSc1nc(NCCCCCCCCC)nc(NCC2CCN(C)CC2)n1` [Compound S11N9D10], the “Absolute mRNA transfection efficiency in embryonic stem cells” value was determined as 39.3%.

The test system of a further test is cardiomyocytes. As to the kind of experiment: Screening as mRNA vectors in cardiomyocytes. The class given is cell-based. To be noted: 50 ng EGFP mRNA per well. A digest of the protocol: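 Cardiomyocytes differentiated from hESC, in DMEM with 10% FBS, were transfected with 50 ng EGFP mRNA per well. The read-out was GFP-positive cells as a percentage of Hoechst-stained nuclei, with Lipofectamine Stem as positive control.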
With `CCCCCCCCCCCSc1nc(NCCCCCCCCC)nc(NCCN2CCCC2)n1` [Compound S11N9D3], the “Absolute mRNA transfection efficiency in cardiomyocytes” value was 8.3%.
Still for that read-out and setting: the result for `CCCCCCCCCCCSc1nc(NCCCCCCCCC)nc(NCCN2CCN(C)CC2)n1` [Compound S11N9D5] reads 30.7%.
As for `CCCCCCCCCCCSc1nc(NCCCCCCCCC)nc(NCCCN(C)C)n1` [Compound S11N9D6], the “Absolute mRNA transfection efficiency in cardiomyocytes” value was determined as 8.7%.
In the case of `CCCCCCCCCCCSc1nc(NCCCCCCCCC)nc(NCCCN2CCOCC2)n1` [Compound S11N9D8], the “Absolute mRNA transfection efficiency in cardiomyocytes” value was found to be 2.6%.
In the case of `CCCCCCCCCCCSc1nc(NCCCCCCCCC)nc(NCCCN2CCN(C)CC2)n1` [Compound S11N9D9], the “Absolute mRNA transfection efficiency in cardiomyocytes” value was found to be 21.0%.
Take `CCCCCCCCCCCSc1nc(NCCCCCCCCC)nc(NCC2CCN(C)CC2)n1` [Compound S11N9D10]: the “Absolute mRNA transfection efficiency in cardiomyocytes” value is on record as 29.6%.

The next test has as its system embryonic stem cells (hESC2). In words: Screening as DNA vectors in embryonic stem cells, flow cytometry. The class given is cell-based. Particulars: 75 ng plasmid DNA, 48 hours after transfection, flow cytometer. The method in brief:
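hESC2 cells in mTeSR1 on matrigel transfected with 75 ng pSin-EGFP-IRES-Puro complexed with amino lipid/DOPE liposomes formed in sodium acetate pH 5.6; 37 °C, 5% CO2. After 48 h, GFP-positive cells counted by flow cytometry (≥2000 cells), efficiency also expressed relative to Lipofectamine Stem.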
Consider `CCCCCCCCCCCSc1nc(NCCCCCCCCC)nc(NCCN2CCCC2)n1` [Compound S11N9D3], for which the “Absolute DNA transfection efficiency in embryonic stem cells” value is reported as 3.7%.
`CCCCCCCCCCCSc1nc(NCCCCCCCCC)nc(NCCN2CCN(C)CC2)n1` [Compound S11N9D5]: the “Absolute DNA transfection efficiency in embryonic stem cells” value worked out at 0.5%.
As to `CCCCCCCCCCCSc1nc(NCCCCCCCCC)nc(NCCCN(C)C)n1` [Compound S11N9D6], the “Absolute DNA transfection efficiency in embryonic stem cells” value is recorded as 1.0%.
Regarding `CCCCCCCCCCCSc1nc(NCCCCCCCCC)nc(NCCCN2CCOCC2)n1` [Compound S11N9D8], the “Absolute DNA transfection efficiency in embryonic stem cells” value turned out to be 0.8%.
As for `CCCCCCCCCCCSc1nc(NCCCCCCCCC)nc(NCCCN2CCN(C)CC2)n1` [Compound S11N9D9], the “Absolute DNA transfection efficiency in embryonic stem cells” value came out at 1.4%.
On to `CCCCCCCCCCCSc1nc(NCCCCCCCCC)nc(NCC2CCN(C)CC2)n1` [Compound S11N9D10], for which the “Absolute DNA transfection efficiency in embryonic stem cells” value stood at 0.5%.

The test system of a further test is cardiomyocytes. In words: Screening as DNA vectors in cardiomyocytes. The test is classed as cell-based. On the set-up: concentration or dose not given beside the values. Particulars: method as Example 4. The method in brief: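 hESC-derived cardiomyocytes in DMEM with 10% FBS were transfected with a GFP DNA vector; Lipofectamine Stem served as positive control. Read-out: percentage of GFP-positive cells relative to total cells counted by Hoechst nuclear stain.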
Turning to `CCCCCCCCCCCSc1nc(NCCCCCCCCC)nc(NCCN2CCCC2)n1` [Compound S11N9D3], the “Absolute DNA transfection efficiency in cardiomyocytes” value is listed as 0.3%.
Still for that read-out and setting: the result for `CCCCCCCCCCCSc1nc(NCCCCCCCCC)nc(NCCN2CCN(C)CC2)n1` [Compound S11N9D5] reads 19.7%.
Consider `CCCCCCCCCCCSc1nc(NCCCCCCCCC)nc(NCCCN(C)C)n1` [Compound S11N9D6], for which the “Absolute DNA transfection efficiency in cardiomyocytes” value amounted to 22.5%.
On the same count and under the same terms, then `CCCCCCCCCCCSc1nc(NCCCCCCCCC)nc(NCCCN2CCOCC2)n1` [Compound S11N9D8], with 1.7%; and `CCCCCCCCCCCSc1nc(NCCCCCCCCC)nc(NCCCN2CCN(C)CC2)n1` [Compound S11N9D9], with 0.3%; and `CCCCCCCCCCCSc1nc(NCCCCCCCCC)nc(NCC2CCN(C)CC2)n1` [Compound S11N9D10], with 16.4%.

Another test deals with Hela cells. In words: Transfection of Hela cell line, mRNA vectors. The class given is cell-based. To be noted: 50 ng EGFP mRNA per well. A digest of the protocol: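 HeLa cells in DMEM with 10% FBS transfected with 50 ng EGFP mRNA per well. Readout is percentage of GFP-positive cells among total cells counted by Hoechst nuclear stain; Lipofectamine2000 served as positive control.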
As for `CCCCCCCCCCCSc1nc(NCCCCCCCCC)nc(NCCN2CCCC2)n1` [Compound S11N9D3], the “Absolute mRNA transfection efficiency in Hela cells” value was determined as 11.5%.
With `CCCCCCCCCCCSc1nc(NCCCCCCCCC)nc(NCCN2CCN(C)CC2)n1` [Compound S11N9D5], the “Absolute mRNA transfection efficiency in Hela cells” value is 10.6%.
As to `CCCCCCCCCCCSc1nc(NCCCCCCCCC)nc(NCCCN(C)C)n1` [Compound S11N9D6], the “Absolute mRNA transfection efficiency in Hela cells” value is 20.3%.
Consider `CCCCCCCCCCCSc1nc(NCCCCCCCCC)nc(NCCCN2CCOCC2)n1` [Compound S11N9D8], for which the “Absolute mRNA transfection efficiency in Hela cells” value was 4.3%.
Same read-out and setting: then `CCCCCCCCCCCSc1nc(NCCCCCCCCC)nc(NCCCN2CCN(C)CC2)n1` [Compound S11N9D9], with 11.8%.
The same measure, in the same setting: the result for `CCCCCCCCCCCSc1nc(NCCCCCCCCC)nc(NCC2CCN(C)CC2)n1` [Compound S11N9D10] reads 16.2%.
